Data from patent US9921406B2, “Targeted dual-axes confocal imaging apparatus with vertical scanning capabilities” (THE REGENTS OF THE UNIVERSITY OF MICHIGAN, priority 2009, dated 2018).
“Also recorded” adds a separate entry of the source.

Tests used:
CXCR7 = biological target: T1, CXCR7 (Homo sapiens, UniProt P25106); assay: CXCR7/β-arrestin 2 firefly luciferase complementation assay for CXCR7 activation; type: cell-based
T1 construct: expressed in transfected cells; host or cells: reporter cells stably expressing the CXCR7/β-arrestin 2 PCA
Text: Binding of synthetic or natural ligands to 7-transmembrane receptors activates the receptor, resulting in receptor activation and recruitment of β-arrestin, a cytosolic adapter protein. The protein interaction between CXCR7 and β-arrestin 2 has been used to develop a protein fragment complementation assay for detecting activation of CXCR7. […] Ligand-dependent interaction of CXCR7 and β-arrestin 2 also brings together NLuc and CLuc fragments, which reconstitutes active firefly luciferase.
Ligands for CXCR7 activate the receptor, causing recruitment of β-arrestin. To determine to what extent the engineered knottin interacts with CXCR7, firefly luciferase complementation for CXCR7 activation was used as a reporter for binding of the peptide to the receptor. CXCR7/β-arrestin reporter cells were incubated with increasing concentrations of CXCR7-targeted knottin for 2 hours and then luciferase activity was quantified in living cells.

CXCR4 = biological target: T2, CXCR4 (Homo sapiens, UniProt P61073); assay: Luciferase complementation for recruitment of β-arrestin to CXCR4; type: cell-based
T2 construct: expressed in transfected cells

[1] = system: adenomas (dysplastic polyps) in the rectum; assay: In vivo fluorescence endoscopy of topically applied peptide in CPC;APC mouse model of colon cancer; conditions: FITC-labeled peptide 10 μM, 1 ml topical, ~10 minute dwell, PBS rinse
Text: This small animal endoscope (Karl Storz Veterinary Endoscopy, Goleta, Calif.) consists of a 9.5 Fr (3 mm) diameter rigid Hopkins II 0 deg telescope with a 11.5 cm working length and a 3 Fr (1 mm) diameter instrument channel for performing tissue biopsy. Fluorescence excitation is produced with a 450 to 475 nm passband filter that can be manually switched into the optical path of a 175 W Nova Xenon light source, and is delivered to the endoscope via a 3 mm diameter fluid light cable with 250 cm length. Fluorescence images are collected with 510 nm barrier filter to block the excitation light, and are detected with a 3-chip color camera with an integrated parfocal zoom lens. Real time video can be recorded via firewire connected to a personal computer.
The rectum of the mouse was first cleaned of stool and debris by performing tap water lavage, and then the distal end of the small animal endoscope was lubricated and inserted into the rectum of the mouse. Once adenomas were identified on white light, shown in FIG. 25A, a 1 ml solution of FITC-labeled peptide “VRPMPLQ” at a concentration of 10 μM was applied through the instrument channel with a syringe, and allowed to dwell for ˜10 minute, followed by gentle rinsing with PBS. […] The rectum was then rinsed vigorously with PBS. Complete removal of the peptide from the rectal mucosa was observed on fluorescence. […]

colonic adenoma = conditions: topical, cited from earlier work

T1 sequence (P25106 whole entry, species assumed): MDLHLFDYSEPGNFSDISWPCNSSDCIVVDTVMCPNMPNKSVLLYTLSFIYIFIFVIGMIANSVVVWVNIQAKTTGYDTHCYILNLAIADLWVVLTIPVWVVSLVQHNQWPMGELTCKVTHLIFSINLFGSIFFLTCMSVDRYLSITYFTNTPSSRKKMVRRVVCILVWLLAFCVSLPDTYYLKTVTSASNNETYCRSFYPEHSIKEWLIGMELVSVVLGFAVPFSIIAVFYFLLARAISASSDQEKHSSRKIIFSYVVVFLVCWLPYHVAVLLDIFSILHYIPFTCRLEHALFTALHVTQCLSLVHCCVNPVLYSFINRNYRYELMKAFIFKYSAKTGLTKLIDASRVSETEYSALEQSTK
T1 sequence (P32121 whole entry partner, species assumed): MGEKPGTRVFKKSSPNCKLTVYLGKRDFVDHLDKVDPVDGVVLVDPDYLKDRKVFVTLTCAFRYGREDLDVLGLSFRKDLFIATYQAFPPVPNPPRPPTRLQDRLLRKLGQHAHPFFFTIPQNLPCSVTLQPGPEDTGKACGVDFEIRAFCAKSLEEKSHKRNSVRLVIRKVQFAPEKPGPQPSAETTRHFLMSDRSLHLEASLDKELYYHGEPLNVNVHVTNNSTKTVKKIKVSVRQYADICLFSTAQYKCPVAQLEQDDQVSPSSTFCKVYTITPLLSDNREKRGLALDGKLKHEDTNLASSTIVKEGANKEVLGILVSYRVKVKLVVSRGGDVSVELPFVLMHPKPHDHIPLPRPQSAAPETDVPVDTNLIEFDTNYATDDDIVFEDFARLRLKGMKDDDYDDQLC
T2 sequence (P61073 whole entry, species assumed): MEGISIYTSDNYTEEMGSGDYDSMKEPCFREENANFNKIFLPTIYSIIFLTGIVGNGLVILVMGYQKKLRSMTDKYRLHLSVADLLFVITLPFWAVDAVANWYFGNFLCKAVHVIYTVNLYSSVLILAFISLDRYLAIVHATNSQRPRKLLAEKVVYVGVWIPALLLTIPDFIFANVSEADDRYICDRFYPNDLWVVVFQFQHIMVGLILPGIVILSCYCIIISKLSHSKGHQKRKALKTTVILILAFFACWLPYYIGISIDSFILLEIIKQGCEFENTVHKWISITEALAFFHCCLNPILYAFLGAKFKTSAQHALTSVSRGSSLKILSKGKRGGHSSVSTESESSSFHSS

Substance	selectivity CXCR7 versus CXCR4 (CXCR7; from luciferase complementation for both receptors)	activation of CXCR7 (bioluminescence) (CXCR7; reporter cells, living cells, knottin incubated 2 hours with increasing concentrations)	activation of CXCR4 (recruitment of β-arrestin) (CXCR4)	peptide binding to adenomas (fluorescence image) [1]	peptide binding seen in fluorescence image, adenoma versus normal mucosa (colonic adenoma; 50 μm depth, FIG. 23B)	average contrast ratio (adenoma:normal fluorescence intensity) (colonic adenoma; imaged at 50 μm depth, n=10 adenomas and adjacent normal mucosa)
GGCKPVSLSYRAPARFCKQDSDCLAGCVCGPNGFCGSA [CXCR7-targeted knottin]	selectively interacts with CXCR7 and not CXCR4	increased bioluminescence; also recorded: dose-dependent activation of CXCR7	did not activate CXCR4			
QLMRPPV [FITC-labeled scrambled (control) peptide, reference compound]				significantly less fluorescence intensity; also recorded: reduced binding		
VRPMPLQ [7mer peptide from phage display, conjugated to fluorescein using a hexanoic acid linker to the N-terminus]				preferential peptide binding to the adenomas; also recorded: affinity binding	significant peptide binding to colonocytes surrounding dysplastic crypts (adenoma)	21±6
